# How the values were obtained:
# myocardial contraction = settings: cited from earlier work; for myocardial contraction activity, equivalent to % of forskolin: source [2]; for myocardial contraction activity EC50: sources [7], [8]
# [1] = cited from earlier work; for antihypertensive effect, equivalent to % of forskolin: source [2]
# cAMP = settings: source [1]; cited from earlier work
# [2] = system: systolic blood pressure (SBP), diastolic blood pressure (DBP), heart rate (HR); settings: source [3]; cited from earlier work
# [3] = of 6-[3-(dimethylamino)propionyl]forskolin; sources [3], [4]; cited from earlier work
# [4] = system: guinea pig myocardial contraction; settings: source [5]; cited from earlier work
# TNF-α = experiment: LPS-induced TNF-α secretion in THP-1 cells, ELISA of culture supernatant; format: cell-based, human; settings: for TNF-α treatment value, B: relative to control
# Method: 1) Recoveried and expanded THP-1 cells in a T75 culture flask. The growth medium was 10 milliliters of 10% fetal bovine serun/RPMI1640 (already containing 2 mM glutamine)/1% double antibiotics in each flask. Observed the cells under an invert microscope, and, when the cells were in the logarithmic growth phase, started the following drug treatment experiments; 2) Cultured 2*10e5/mL THP-1 cells in a 96-well culture plate with 100 microliters of growth medium (10% fetal bovine serum/RPMI640/1% double antibiotics) per well, and added 100 ng/ml PMA to incubate for 24 hour; 3) Eluted the non-adherent cells once with 300 microliters of fresh growth medium of 10% fetal bovine serum/RPMI1640/1% double antibiotics; 4) Added 200 microliters of growth medium of 10% fetal bovine serum/RPMI1640/1% double antibiotics, with/without test compound, to pre-incubate the cells at 37° C. for 2 hours; 5) Then added 100 ng/mL lipopolysaccharide (LPS) and incubated at 37° C. for 4 hours: 6) Collected 50 microliters of cell culture supernatant for the detection of the levels of related cytokines by enzyme-linked immunoassay, or stored it in a refrigerator at minus 80 degrees Celsius for future detection; 1) Prepared 1× elution buffer for enzyme-linked immunoassay. Prepared it with ultrapure water: 10× elution buffer mother solution=9:1 in volume ratio for use; 2) Prepared the antibody cocktail for enzyme-linked immunoassay. Prepared it with the antibody diluent (provided by Ab221825):antibody 1:antibody 2=18:1:1 in volume ratio for use. Antibody 1 was a TNF-α capture antibody and Antibody 2 was a TNF-α detector antibody. They were all supplied by kit Ab221825; 3) Prepared a series of concentration gradient samples of TNF-α standard with ultrapure water for the plotting of reaction standard curve and determining the linear range of detection signal; 4) Added 50 microliters of cell culture supernatant/standard and 50 microliters of the above antibody cocktail to a 96-well plate used for enzymatic reaction, sealed it with a film, placed it on a horizontal shaker, and incubated at 400 rpm for 1 hour at room temperature to allow the antibody-antigen complex was fully bound and coupled at the bottom of the well plate; 5) Discarded the supernatant, eluted with 350 microliters of 1× elution buffer/well for 3 times. In the last elution, put the well plate upside down on an absorbent paper and sucked and washed it thoroughly; 6) Added 100 microliters of TMB substrate solution (supplied by Ab221825) to each well, placed them on a horizontal shaker and incubated in the dark at room temperature for 5 minutes at a speed of 400 rpm; 7) Added 100 microliters of reaction stop solution (provided by Ab221825), placed on a horizontal shaker and mix at 400 rpm for 1 minute; 8) Detected the absorbance at 450 nm with a microplate reader.
# IL-17A = IL-17A secretion of mouse spleen Naïve CD4+ T cells induced to differentiate to Th17 cells by cytokines, ELISA; format: cell-based
# Method: 1) Pre-coated the 96-well plate with 2 μg/mL anti-mouse CD3e and incubated overnight at 4 degrees Celsius: 2) Separated fresh spleens from adult C57BL/6 female mice (8-12 weeks old), ground and filtered through a […] nylon cell strainer to obtain a single cell suspension in pre-cooled DPBS; 3) Washed the spleen cells again with DPBS, and resuspended in RoboSep™ buffer at a density of 1×10^8/mL; 4) Separated primary CD4+ T cells with mouse primary CD4+ T cell isolation kit as required by the kit; 5) Resuspended the isolated CD4+ T cells in complete medium (RPMI 1640 medium+10% inactivated FBS+1% double antibiotics) at a density of 1×10^6/mL; 6) Washed the 96-well plate pre-coated with anti-mouse CD3e twice with DPBS, added 50 μL of cytokine cocktail, the composition and final concentration of which are shown in Table 6 below, and then added 50 μL of compound solution (the final concentration of DMSO was 0.1%). Added 100 μL of cell suspension to each well to allow the final cell number per well to be 1×10^5/100 μL; [table] 7) Cultured the cells for 7 days under the above conditions. The culture conditions were 37 degrees Celsius, 5% CO2 concentration; 8) After 7 days, added 1× stimulation cocktail (eBioscience 500X) to the culture medium for 4 hours, and then collected cell culture supernatant for detection with IL-17A enzyme-linked immunoassay kit; 9) Completed the detection of supernatant IL-17A concentration with mouse IL-17 DuoSet ELISA kit; 10) Read the OD450 nm absorbance value with a microplate reader, and generated the standard curve by using the 4-parameter logistic fitting (4-PL) method. 1) Diluted the capture antibody (provided in the kit) to a working concentration in PBS without carrier protein, that is, a 96-well plate can be coated with 100 microliters per well. Sealed and incubated the plate overnight at room temperature; 2) Aspirated the coating buffer of the well plate, and eluted with 400 microliters of eluent (provided in the kit) for three times, aspirating as much liquid as possible each time; 3) Added 300 microliters of diluent (provided in the kit) to each well, and equilibrated for 1 hour at room temperature; 4) Eluted the well plate as in the above step 2) to be ready for the addition of sample; ) Added 100 microliters of sample or standard to each well containing the added diluent, and sealed and incubated the well plate for 2 hours at room temperature; 6) Eluted the well plate as in the above step 2); 7) Added 100 microliters of detector antibody (provided in the kit) to each well, and sealed and incubated the well plate for 2 hours at room temperature. 8) Eluted the well plate as in the above step 2); 9) Added 100 microliters of Streptavidin-HRP working solution (provided in the kit) to each well, and sealed and incubated the well plate in dark for 20 minutes at room temperature. 10) Eluted the well plate as in the above step 2); 11) Added 100 microliters of reaction substrate solution (provided in the kit) to each well, and incubated at room temperature for 20 minutes, protected from light: 12) Added 50 microliters of stop solution (provided in the kit) to each well, and tapped the well plate to ensure that the liquid is evenly mixed; 13) Detected the optical density value of each well at […]. The values could be corrected by deducting the values at 540 nm or 570 nm.
# [5] = target: adenylate cyclase in rat cerebral cortex; settings: source [8]; read-out: activation of adenylate cyclase in rat cerebral cortex EC50; cited from earlier work
# [6] = cited from earlier work
# psoriasis = settings: 4 patients with psoriasis; PCT/US84/00291; cited from earlier work
structure (smiles),measurement,setting,value
C=C[C@@]1(C)CC(=O)C2(O)[C@@]3(C)C(O)CCC(C)(C)C3[C@H](OC(=O)CCCN)C(OC(C)=O)[C@@]2(C)O1 (stereo partly shown) [6-(4-aminobutyryl)forskolin],myocardial contraction activity,myocardial contraction; source [1],0.9 dp/dt
same,antihypertensive effect,[1]; source [1],0.7
same,cAMP activation,cAMP,214.9%
C=C[C@@]1(C)CC(=O)C2(O)[C@@]3(C)C(O)CCC(C)(C)C3[C@H](OC(=O)CCN(C)C)C(OC(C)=O)[C@@]2(C)O1 (stereo partly shown) [6-[3-(dimethylamino)propionyl]forskolin],"myocardial contraction activity, equivalent to % of forskolin",myocardial contraction,120 % of forskolin
same,"antihypertensive effect, equivalent to % of forskolin",[1],80 % of forskolin
C=C[C@@]1(C)CC(=O)C2(O)[C@@]3(C)[C@@H](O)CCC(C)(C)[C@@H]3[C@H](OC(=O)CCNC)[C@H](OC(C)=O)[C@@]2(C)C1 (stereo partly shown) [6-[3-(methylamino)propionyl]forskolin],"beagle dog's systolic blood pressure (SBP), diastolic blood pressure (DBP), heart rate (HR) and other effects",[2],equivalent to 6-[3- (dimethylamino)- propionyl]forskolin
same,metabolite status,[3],in vivo active metabolite
C=C[C@@]1(C)CC(=O)C2(O)[C@@]3(C)[C@@H](O)CCC(C)(C)[C@@H]3[C@H](OC(=O)CCN)[C@H](OC(C)=O)[C@@]2(C)C1 (stereo partly shown) [6-[3-aminopropionyl]forskolin],metabolite status,[3],in vivo active metabolite of 6-[3- (dimethylamino)- propionyl]forskolin
C=C[C@@]1(C)CC(=O)C2(O)[C@@]3(C)C(O)CCC(C)(C)C3[C@H](OC(=O)CCCN(C)C)C(OC(C)=O)[C@@]2(C)O1 (stereo partly shown) [6-[4-(dimethylamino)butyryl]forskolin],"myocardial contraction activity, equivalent to % of forskolin",myocardial contraction,100 % of forskolin
same,"antihypertensive effect, equivalent to % of forskolin",[1],90 % of forskolin
C=CC1(C)CC(=O)C2(O)C(C)(O1)C(O)C(OC(=O)CN1CCCCC1)C1C(C)(C)CCC(O)C12C (stereo not shown) [6-[(piperidino)acetyl]-7-desacetyl forskolin],guinea pig myocardial contraction activity EC50,[4],guinea pig myocardial contraction activity EC50: 1.8 μg/mL
C=C[C@@]1(C)CC(=O)[C@]2(O)C3(C)C(C(O)C(OC(=O)COC=O)[C@@]2(C)O1)C(C)(C)CC[C@@H]3O (stereo partly shown) [7-(2-formyloxy)forskolin],myocardial contraction activity EC50,myocardial contraction,myocardial contraction activity EC50 = 0.002 μg/mL
"CCCCC[C@H](O)/C=C/[C@H]1[C@H](O)CC(=O)[C@@H]1C/C=C\CCCC(=O)O [PGE2, prostaglandin E2, reference compound]",effect on secretion and expression of TNF-α,"TNF-α; 10 μM PGE2 alone, FIG. 4",inhibited the secretion and expression of TNF-α to a certain extent
same,"TNF-α treatment value, B","TNF-α; Table 3, 10 μM PGE2",46%
same,"IL-17A, % of the basic level","IL-17A; 3 μM PGE2 alone, FIG. 10",17%
same,"IL-17A treatment value, B","IL-17A; Table 7, relative to control, 3 μM PGE2",17%
C=C[C@@]1(C)CC(=O)[C@]2(O)[C@@]3(C)[C@@H](O)CCC(C)(C)[C@@H]3[C@H](O)[C@H](OC(C)=O)[C@@]2(C)O1 [forskolin],drug activity in reducing TNF-α,"TNF-α; FIG. 2, compared with 6-[3-(dimethylamino)propionyl]forskolin hydrochloride",slightly lower than the aforementioned compound
same,myocardial contraction activity EC50,myocardial contraction,0.02 µg/mL
same,EC50,[5],8 µM
same,water solubility,[6],poor
same,effect on pathological symptoms of psoriasis,psoriasis,relieved the pathological symptoms
"C[C@]12CCC(=O)C=C1CC[C@@H]1[C@@H]2[C@@H](O)C[C@@]2(C)[C@H]1CC[C@]2(O)C(=O)CO [hydrocortisone, reference compound]",effect on TNF-α,"TNF-α; 30 μM hydrocortisone alone, pre-incubated 2 hours before LPS, FIG. 6",further stimulated the increase of inflammatory factor TNF-α
same,"TNF-α treatment value, B","TNF-α; Table 4, 30 μM hydrocortisone",200%
same,"reduction of the IL-17A level, % of the basic level","IL-17A; 3 μM hydrocortisone alone, FIG. 12",38%
same,"IL17-A treatment value, B","IL-17A; Table 8, relative to control, 3 μM hydrocortisone",62%

# — patent US20220079915A1, “IMMUNOSUPPRESSIVE PHARMACEUTICAL COMPOSITION AND APPLICATION THEREOF” (Shanghai Archeus Biotech Co., Ltd., priority 2018, published 2022)
